Entries after “also recorded” stand apart in the source; their conditions may differ. Where two headings read alike, the source gives them in different places.
Columns and labels:
C57BL6/J mice [1] = conditions: for Incidence and severity of aging phenotypes / morbidity (total frailty score): female and male, Cohort-1, 2% w/w diet from 18 months; for Age-related changes in female coat color / hair discoloration: female mice; for Severity of individual frailty phenotypes: grimace, poor coat condition, gait disorder
Description: For the subjective properties of the assessments, all measurements were completely blinded. These assessments indicate age-associated deterioration of health and include evaluation of the animal musculoskeletal system, the vestibulocochlear/auditory systems, the ocular and nasal systems, the digestive system, the urogenital system, the respiratory system, signs of discomfort, body weight and body surface temperature. 0 is assigned if no sign of frailty is observed and the animal is healthy for that phenotype. A moderate phenotype and a severe phenotype is scored 0.5 and 1 respectively. Loss of temperature and weight were scored using standard deviation for the study (Table 2). All the phenotypes were scored as described before by Whitehead, J. C., et al., except for temperature and weight. Temperature and weights scoring: Briefly, for weight and temperature, the new scaling scores were used; Average and standard deviations (STDEV) were calculated sex specifically using our own baseline data sets (data collected before the start of the treatment mice at 18th month age). A decrease in temperature or weight (FIG. 3B, and FIG. 3D) within one STDEV is scored as a (0), a decrease bigger than one STDEV but smaller than 2 STDEV will be scored as a (0.5) and any decrease more than 2 STDEV is scored as a (1).
(§1) Python Software was used to extract all the health span data and create files compatible with R software for analysis. Data were analyzed using R, GraphPad Prism 7 and OASIS 2 software. Log-rank (Mantel-Cox) tests were used to analyze Kaplan-Meier curves, and a fisher's exact test was performed for maximum lifespan analysis (at 90% survival). […] Two-way analysis of variance (ANOVA) with Bonferroni post hoc correction was used for analysis between morbidity curves. The area under curve (AUC) of […] graphs were measured baselining at 18 months of age. The changes in AUC were used to calculate the percent compression of morbidity.
In order to assess healthspan, measurements were applied that are based on a clinically relevant frailty index. The frailty index (FI) consists of 31 phenotypes that are indicators of age-associated health deterioration, with each phenotype scored on a 0, 0.5 or 1 scale, based on its severity. Body weight and surface temperature were collected and converted to the same scoring scales (Table 2). All scorings were conducted in a blinded manner.
The 31-metrics share many characteristics of the human frailty indices and has been reported to progress similarly with aging in mice and humans. Measurements were repeated approximately every eight weeks, providing us with eight and seven sets of data respectively for male and female groups. To establish a baseline clinical assessment, a dataset was collected right before the start of the treatment at 18th months (FIG. 4A-FIG. 4D).
Since the age for onset of age-related phenotypes can be quite heterogeneous in mammals, frailty datasets were plotted not only as a function of chronological time, but also in proportion to the lifespan of each mouse by binning scores within ten percentile (e.g. scores collected between 60% and 70% of the animals' lifespans were binned and plotted at 65%), (FIG. 9A-FIG. 9B). This further aligns assessments with respect to the biologic age of the animal.

IMR-90 fibroblasts = test: Senescence formation in irradiated IMR-90 fibroblasts (SA-β-gal, EdU); assay type: cell-based; conditions: 10 Gy ionizing radiation; 1 mM for 10 days
Experimental: IMR-90 fetal lung fibroblasts were obtained from ATCC and were cultured at 37° C. in 3% O2 and 5% CO2. Dulbecco's modified Eagle's media (DMEM) supplemented with 10% fetal bovine serum and streptomycin/penicillin were used. Media was changed every 2 days during the experiment. For damage-induced senescence, cells were irradiated with doses of either 0 or 10 Gy of ionizing radiation (IR). Cells were concurrently treated with PBS (control) or 1 mM AKG for 10 days, changing media every 2 days. All assays were performed 10 days post irradiation.
Cells were stained for the senescence-associated 3-gal (SA-3-gal) marker as described. Non-senescent cells (having undergone fewer than 35 population doublings) were made quiescent by washing with PBS and incubating in DMEM containing 0.2% serum for 4 day. Cultures that had >80% SA-3-gal positive cells and ≤4% EdU positive cells were considered senescent.

[2] = test system: inflammatory cytokines and chemokines; test: Inflammatory cytokines and chemokines in serum (multiplex bead array); assay type: in vivo, mice; conditions: for Levels of 30 inflammatory cytokines and chemokines: aged female mice (29 month old) vs. aged control and young
Experimental: The samples were measured for soluble cytokines and chemokines in serum using multiplex bead array technology (MD31).

[3] = test system: senescence-associated secretory phenotype (SASP) genes; test: qRT-PCR of SASP genes in irradiated IMR-90 fibroblasts; assay type: cell-based; conditions: 10 Gy ionizing radiation; 1 mM for 10 days
Experimental: For damage-induced senescence, cells were irradiated with doses of either 0 or 10 Gy of ionizing radiation (IR). Cells were concurrently treated with PBS (control) or 1 mM AKG for 10 days, changing media every 2 days. All assays were performed 10 days post irradiation.
RNA quality and quantity were assessed using NanoDrop™ 1000 spectrophotometer measures (Thermo Scientific). Total cDNAs were synthesized from 500 ng of RNA using random primers and iScript RT reagents following the manufacturer's protocol Superscript II (Invitrogen, Carlsbad, USA). Gene expression was measured from cDNA using the Roche Universal Probe Library system (Indianapolis, Ind., USA). All values were normalized to beta-actin.

[4] = Body weight and food consumption; assay type: in vivo, mice
Description: (§2) The principle endpoint of health span and lifespan study was natural death or mice found dead at daily inspection or age at euthanasia (for mice deemed unlikely to survive for next 48 hr and are in enormous discomfort). The criteria for euthanasia were based on an independent assessment by a veterinarian, according to AAALAC guidelines and only where the condition of the animal was considered. Severe lethargy, rapid weight loss (over two weeks>20%), severe distended abdomen and body condition score with signs of pain (grimace), inability to move despite the stimuli, severe ulcer or bleeding tumor, sever temperature loss with abnormal breathing rate. Animal found dead or euthanized was necropsied for pathology score. No invasive measurements were performed on this population, n=180 animals (two cohorts of 90 animals). A sacrificed group were purchased at 14 months of age, baselined and grouped the following week. […] Animals were sacrificed and tissues were collected after 3 months of treatment. Food intake and body weight were measured on a biweekly and bimonthly basis for the duration of the study.
Metabolism was measured applying indirect calorimetry. Promethion metabolic cage system-Sable Systems International was used.

C57BL6/J mice [5] = conditions: Cohort-1, 2% w/w AKG diet from 18 months of age
Description: as §2, §1

C57BL6/J mice [6] = conditions: treated group vs. control
Experimental: Metabolism was measured applying indirect calorimetry. Promethion metabolic cage system-Sable Systems International was used. The system is equipped with GA-3 small mammal gas analyzers for measurements of O2 (consumption) and CO2 (production). Energy expenditure, food intake, water consumption, body weight, physical activity and volunteer exercise were simultaneously recorded over 4 consecutive days (96 hours). Mice were housed individually in metabolic cages and accustomed to their environment a day before the start of recording. Data were analyzed using Sable System Expedata-P Data Analysis Software. Subsequently, CalR software, a free web tool was used for analysis of experiments using indirect calorimetry, to analyze the raw data, generate some plots and run statistical analysis.

[7] = aged mice (29 months old) vs. young and aged control

With `O=C(O)CCC(=O)C(=O)O` [AKG, 2-oxopentanedioic acid] the “Compression of morbidity (proportion of life frail)” value (C57BL6/J mice [1]; both sexes, total frailty scores vs. percentage of lifespan) was “compresses the morbidity risk into fewer days of life; also recorded: decreases the proportion of life in which the animal is frail”, the “Incidence and severity of aging phenotypes / morbidity (total frailty score)” value (C57BL6/J mice [1]) was “extends healthspan and alleviates age-associated frailty” and the “Age-related changes in female coat color / hair discoloration” value (C57BL6/J mice [1]) was “prevents age-associated hair discoloration”. The “Senescence formation / senescence growth arrest” value (IMR-90 fibroblasts) was “without preventing the senescence growth arrest”, the “Levels of 30 inflammatory cytokines and chemokines” value [2] was “general trend of reduction” and the “Level of IL-3” value [2, 7] was “do not show an increase”. For the same compound, the “Level of IL-7” value [2, 7] was “do not show an increase”, the “Level of MIP-1β” value [2, 7] was “do not show an increase” and the “Level of TNFα” value [2, 7] was “do not show an increase”. The “Range of inflammatory cytokines (proinflammatory SASP)” value [3] was “lowers the proinflammatory SASP”, the “Body weight preservation (age-related weight loss)” value ([4]; male mice, second cohort, P value<0.001) was “preserves body weight; also recorded: better body weight preservation” and the Food consumption ([4]; measured for 3 consecutive days at 19, 23 and 28 months, AKG fed vs. control) was “no significance change”. The “Age (days) at 100%” value (C57BL6/J mice [5]; female) was 1116 days, the “Age (days) at 100%” value (C57BL6/J mice [5]; male & female) was 1173 days and the “Age (days) at 100%” value (C57BL6/J mice [5]; male) was 1173 days.
In the case of `O=C([O-])CCC(=O)C(=O)[O-].[Ca+2]` [CaAKG, Calcium alpha-ketoglutarate], the “Incidence and severity of aging phenotypes / morbidity (total frailty score)” value (C57BL6/J mice [1]) is reported as “decreases incidence and severity of different aging phenotypes and postpones morbidity”, the “Age-related changes in female coat color / hair discoloration” value (C57BL6/J mice [1]) is reported as “protection from age-related changes in female coat color was particularly prominent” and the “Total frailty score, health improvement vs. control” value (C57BL6/J mice [1]; female, P<0.001, P<0.05) is reported as “significant improvements after 9 months of treatment and again at 11 months post treatment”. For the same compound, the Gait (C57BL6/J mice [1]; females and males close to median life) was “Gait improvement”, the “Severity of individual frailty phenotypes” value (C57BL6/J mice [1]; females: piloerection, alopecia, loss of fur color, grip strength loss, rectal prolapse, body weight loss) was “significantly decreased” and the “Total frailty score, health improvement vs. control” value (C57BL6/J mice [1]; male, persisted until last measurement at 33 months of age, P<0.01, P<0.05) was “significant health improvement after 11 months”. The “Severity of individual frailty phenotypes” value (C57BL6/J mice [1]; males: grip strength loss, vestibular disturbance, loss of menace reflex, hearing loss, eye discharge, poor body condition, tail stiffening, abnormal breathing rate) was “significantly decreased the severity of multiple aging phenotypes”, the “Levels of 30 inflammatory cytokines and chemokines” value [2] was “largely refractory to these changes” and the “Level of IL-3” value [2, 7] was “significant changes”. For the same compound, the “Level of carbon dioxide production” value (C57BL6/J mice [6]) was “significantly lower”, the “Level of energy expenditure” value (C57BL6/J mice [6]) was “significantly lower” and the “Level of oxygen consumption” value (C57BL6/J mice [6]) was “significantly lower”.

From patent US20220241229A1, “Methods and Compositions for Altering Senescence Associated Secretory Phenotype” (BUCK INSTITUTE FOR RESEARCH ON AGING, priority 2019, published 2022)
